What was measured:
[1] = molar heat capacity at constant pressure; xn = mol fraction of the nth substance listed; details: 101 kPa, Liquid, Small sample (50 mg) DSC
[2] = refractive index (Na D-line) (dimensionless); xn = mol fraction of the nth substance listed; details: 101 kPa, Liquid, Standard Abbe refractometry
[3] = excess molar enthalpy (molar enthalpy of mixing); xn = mol fraction of the nth substance listed; details: 101 kPa, Liquid

C[S+](C)[O-] [dimethyl sulfoxide] + CCCO
Details | excess molar enthalpy [kcal/mol] | molar heat capacity at constant pressure [J/K/mol] | refractive index
[1], 288.15 K, x1 = 0.0514 | – | 138.1 | –
[1], 288.15 K, x1 = 0.1127 | – | 137.3 | –
[1], 288.15 K, x1 = 0.2114 | – | 136.2 | –
[1], 288.15 K, x1 = 0.3163 | – | 135.5 | –
[1], 288.15 K, x1 = 0.418 | – | 135.3 | –
[1], 288.15 K, x1 = 0.5029 | – | 135.7 | –
[1], 288.15 K, x1 = 0.6216 | – | 136.7 | –
[1], 288.15 K, x1 = 0.7068 | – | 138.1 | –
[1], 288.15 K, x1 = 0.7975 | – | 140 | –
[1], 288.15 K, x1 = 0.8537 | – | 141.7 | –
[1], 288.15 K, x1 = 0.8994 | – | 143.1 | –
[1], 288.15 K, x1 = 0.9429 | – | 144.6 | –
[1], 298.15 K, x1 = 0.0514 | – | 143.6 | –
[1], 298.15 K, x1 = 0.1127 | – | 142.3 | –
[1], 298.15 K, x1 = 0.2114 | – | 140.3 | –
[1], 298.15 K, x1 = 0.3163 | – | 139.1 | –
[1], 298.15 K, x1 = 0.418 | – | 138.6 | –
[1], 298.15 K, x1 = 0.5029 | – | 138.6 | –
[1], 298.15 K, x1 = 0.6216 | – | 139.7 | –
[1], 298.15 K, x1 = 0.7068 | – | 141.1 | –
[1], 298.15 K, x1 = 0.7975 | – | 143.5 | –
[1], 298.15 K, x1 = 0.8537 | – | 145.4 | –
[1], 298.15 K, x1 = 0.8994 | – | 147.4 | –
[1], 298.15 K, x1 = 0.9429 | – | 149.4 | –
[1], 308.15 K, x1 = 0.0514 | – | 149.7 | –
[1], 308.15 K, x1 = 0.1127 | – | 147.9 | –
[1], 308.15 K, x1 = 0.2114 | – | 145.2 | –
[1], 308.15 K, x1 = 0.3163 | – | 143 | –
[1], 308.15 K, x1 = 0.418 | – | 141.4 | –
[1], 308.15 K, x1 = 0.5029 | – | 140.9 | –
[1], 308.15 K, x1 = 0.6216 | – | 141.2 | –
[1], 308.15 K, x1 = 0.7068 | – | 142.4 | –
[1], 308.15 K, x1 = 0.7975 | – | 144.7 | –
[1], 308.15 K, x1 = 0.8537 | – | 146.8 | –
[1], 308.15 K, x1 = 0.8994 | – | 148.7 | –
[1], 308.15 K, x1 = 0.9429 | – | 151 | –
[2], 288.15 K, x1 = 0.0533 | – | – | 1.3942
[2], 288.15 K, x1 = 0.0938 | – | – | 1.3979
[2], 288.15 K, x1 = 0.1708 | – | – | 1.405
[2], 288.15 K, x1 = 0.2592 | – | – | 1.4132
[2], 288.15 K, x1 = 0.346 | – | – | 1.4212
[2], 288.15 K, x1 = 0.4294 | – | – | 1.429
[2], 288.15 K, x1 = 0.5115 | – | – | 1.4367
[2], 288.15 K, x1 = 0.5981 | – | – | 1.4449
[2], 288.15 K, x1 = 0.6853 | – | – | 1.4532
[2], 288.15 K, x1 = 0.7596 | – | – | 1.4603
[2], 288.15 K, x1 = 0.8438 | – | – | 1.4685
[2], 288.15 K, x1 = 0.9368 | – | – | 1.4774
[2], 298.15 K, x1 = 0.0554 | – | – | 1.3889
[2], 298.15 K, x1 = 0.1366 | – | – | 1.3966
[2], 298.15 K, x1 = 0.22 | – | – | 1.4045
[2], 298.15 K, x1 = 0.2987 | – | – | 1.4119
[2], 298.15 K, x1 = 0.4289 | – | – | 1.4239
[2], 298.15 K, x1 = 0.5022 | – | – | 1.4307
[2], 298.15 K, x1 = 0.5992 | – | – | 1.4398
[2], 298.15 K, x1 = 0.677 | – | – | 1.4472
[2], 298.15 K, x1 = 0.7656 | – | – | 1.4558
[2], 298.15 K, x1 = 0.8358 | – | – | 1.4627
[2], 298.15 K, x1 = 0.9181 | – | – | 1.4705
[2], 298.15 K, x1 = 0.9646 | – | – | 1.4747
[2], 308.15 K, x1 = 0.0537 | – | – | 1.3843
[2], 308.15 K, x1 = 0.1336 | – | – | 1.3916
[2], 308.15 K, x1 = 0.2147 | – | – | 1.3991
[2], 308.15 K, x1 = 0.2987 | – | – | 1.407
[2], 308.15 K, x1 = 0.3876 | – | – | 1.4152
[2], 308.15 K, x1 = 0.4707 | – | – | 1.4229
[2], 308.15 K, x1 = 0.5552 | – | – | 1.4308
[2], 308.15 K, x1 = 0.6418 | – | – | 1.4389
[2], 308.15 K, x1 = 0.7191 | – | – | 1.4462
[2], 308.15 K, x1 = 0.7998 | – | – | 1.454
[2], 308.15 K, x1 = 0.877 | – | – | 1.4614
[2], 308.15 K, x1 = 0.965 | – | – | 1.4698
[3], 288.15 K, x1 = 0.042 | 0.0514 | – | –
[3], 288.15 K, x1 = 0.0807 | 0.0896 | – | –
[3], 288.15 K, x1 = 0.1163 | 0.118 | – | –
[3], 288.15 K, x1 = 0.1493 | 0.139 | – | –
[3], 288.15 K, x1 = 0.2084 | 0.168 | – | –
[3], 288.15 K, x1 = 0.2598 | 0.182 | – | –
[3], 288.15 K, x1 = 0.3449 | 0.196 | – | –
[3], 288.15 K, x1 = 0.4124 | 0.196 | – | –
[3], 288.15 K, x1 = 0.5129 | 0.189 | – | –
[3], 288.15 K, x1 = 0.6124 | 0.173 | – | –
[3], 288.15 K, x1 = 0.6781 | 0.158 | – | –
[3], 288.15 K, x1 = 0.7595 | 0.128 | – | –
[3], 288.15 K, x1 = 0.8456 | 0.093 | – | –
[3], 288.15 K, x1 = 0.8634 | 0.0822 | – | –
[3], 288.15 K, x1 = 0.8939 | 0.0676 | – | –
[3], 288.15 K, x1 = 0.9267 | 0.0488 | – | –
[3], 288.15 K, x1 = 0.9619 | 0.0265 | – | –
[3], 298.15 K, x1 = 0.0422 | 0.0495 | – | –
[3], 298.15 K, x1 = 0.0809 | 0.0875 | – | –
[3], 298.15 K, x1 = 0.1166 | 0.117 | – | –
[3], 298.15 K, x1 = 0.1497 | 0.141 | – | –
[3], 298.15 K, x1 = 0.2089 | 0.167 | – | –
[3], 298.15 K, x1 = 0.2604 | 0.182 | – | –
[3], 298.15 K, x1 = 0.3456 | 0.199 | – | –
[3], 298.15 K, x1 = 0.4131 | 0.201 | – | –
[3], 298.15 K, x1 = 0.5137 | 0.194 | – | –
[3], 298.15 K, x1 = 0.6131 | 0.175 | – | –
[3], 298.15 K, x1 = 0.6787 | 0.16 | – | –
[3], 298.15 K, x1 = 0.7602 | 0.134 | – | –
[3], 298.15 K, x1 = 0.8086 | 0.111 | – | –
[3], 298.15 K, x1 = 0.8638 | 0.0853 | – | –
[3], 298.15 K, x1 = 0.8942 | 0.0674 | – | –
[3], 298.15 K, x1 = 0.9269 | 0.0492 | – | –
[3], 298.15 K, x1 = 0.9621 | 0.0265 | – | –
[3], 308.15 K, x1 = 0.0421 | 0.0507 | – | –
[3], 308.15 K, x1 = 0.0808 | 0.0872 | – | –
[3], 308.15 K, x1 = 0.1234 | 0.122 | – | –
[3], 308.15 K, x1 = 0.1495 | 0.14 | – | –
[3], 308.15 K, x1 = 0.2087 | 0.167 | – | –
[3], 308.15 K, x1 = 0.2601 | 0.183 | – | –
[3], 308.15 K, x1 = 0.3454 | 0.198 | – | –
[3], 308.15 K, x1 = 0.4128 | 0.199 | – | –
[3], 308.15 K, x1 = 0.5134 | 0.193 | – | –
[3], 308.15 K, x1 = 0.612 | 0.175 | – | –
[3], 308.15 K, x1 = 0.6784 | 0.16 | – | –
[3], 308.15 K, x1 = 0.7599 | 0.129 | – | –
[3], 308.15 K, x1 = 0.8084 | 0.111 | – | –
[3], 308.15 K, x1 = 0.8636 | 0.082 | – | –
[3], 308.15 K, x1 = 0.8941 | 0.0698 | – | –
[3], 308.15 K, x1 = 0.9268 | 0.049 | – | –
[3], 308.15 K, x1 = 0.962 | 0.027 | – | –

Source: the NIST ThermoML archive (doi:10.1021/je0601513)
